According to patent publication US20150141375A1 (priority 2009, published 2015):
Several values for one entry are separate records, joined by “and”; a condition that tells them apart may be missing. Equal entries are not always repeated. Entries after “also recorded” stand apart in the source; their conditions may differ. Where two headings read alike, the source gives them in different places.

Experiments:
Adenovirus = Adenovirus IC50s for CMX001, serotypes/isolates; format: cell-based
[1] = Clearance and organ distribution in mouse; format: in vivo; details: oral 5 mg/kg [C2-14C]CMX001, four hours
HCMV (AD169) = assay: HCMV real time array of viral transcripts; format: cell-based; details: CDV 50 μM, GCV 15 μM, CMX001 0.5 μM; ANOVA P<0.05
BKV = assay: First fifteen EIND patients: BKV; format: in vivo, human; details: one of two BKV patients
JCV = assay: Patients with JC viral infections treated with CMX001; format: in vivo, human
Protocol: A study has been conducted on patients with various JC viral infections and diseases associated with JC virus. After these patients are treated with CMX001, the patients have shown significant improvements.

vaccinia virus = format: in vivo, human; details: detectable while on ST-246 and VIG
HSV-2, strain MS = assay: Mortality of BALB/c mice infected intranasally with HSV-2, strain MS; format: in vivo
Protocol: Animals: BALB/c, female mice, 3-4 weeks of age.
Treatments were administered to mice for 7 consecutive days beginning 72 hr post viral inoculation by oral gavage using a 0.2 ml volume. CMX001 was administered once daily and ACV was given twice daily at approximately 12 hr intervals.
Mortality rates analyzed by Fisher's exact test; Mean day of death (MDD) by Mann-Whitney U rank sum.

[2] = Safety and pharmacokinetics of CMX001 in healthy volunteers; format: in vivo, human; details: for AUC / Cmax: blood, Human, analyte = label
Protocol: An initial study was conducted to evaluate the safety and pharmacokinetics of CMX001 in healthy volunteers. The study consisted of a single dose arm (SD) and a multiple dose arm (MD). In the single dose arm 7 cohorts of 6 subjects were treated (4 subjects received active drug and 2 placebo). Enrollment was staggered as 2 subjects (one active, one placebo) followed by 4 subjects (Groups A and B). The estimated single doses for the two highest doses treated for a […] subject were 40 mg (0.6 mg/kg cohort 6) and 70 mg (1 mg/kg cohort 7). In the multiple dose arm, cohort 6MD received 0.1 mg/kg on Day 0, 6 and 12; Cohort 7MD received 0.2 mg/kg on Day 0, 6 and 12. Levels of cidofovir, CMX001 and CMX064 (major metabolite) were measured in blood and urine of subjects during the course of the study. Gastrointestinal (GI) monitoring of the subjects included (a) monitoring for clinical signs of GI adverse events, (b) monitoring for clinical symptoms using a visual Analog Scale, (c) monitoring for appetite loss/anorexia, nausea, vomiting, diarrhea, constipation and intestinal gas/bloating, (d) laboratory tests for fecal occult blood; serum electrolytes, urine specific gravity, BUN/creatinine ratio; serum albumin, and lipids, and (e) diagnostic studies (the Wireless capsule endoscopy (PillCam®, Given Imaging)).

SVG cells = assay: SVG cell viability / cell number (MTS, alamar blue, hematoxylin); format: cell-based, human
Protocol: (§1) Quantification of cell viability using the MTS [3-(4,5-dimethylthiazol-2-yl)-5-(3-carboxymethoxyphenyl)-2-(4-sulfophenyl)-2H-tetrazolium] assay is based on bioactivity of mitochondrial dehydrogenase in living cells, which converts colorless tetrazolium salt to a colored formazan. MTS assays were performed according to manufacturer's instructions (Promega, Madison Wis.). Briefly, culture medium was removed from cells and 50 μL of PBS was added into each well of a 96 well plate. Ten μL of MTS reagent were added to wells of cells, and to a well without cells to determine background. Mixtures were incubated at 37° C. for 2 hours and the absorbance was measured at 490 nm. Trypan blue staining was performed on identical cultures to correlate MTS values with cell viability. The final values indicated are the result from 3 replicates. The value for the non-treated control was set to 100% and all other values are represented as a percentage of the control. Alamar blue (AB) assay.
(§2) Quantification of cell viability using the alamar blue (AB) assay was performed according to the manufacturer's instructions (Invitrogen, Gaithersburg, Md.). Briefly, 10 μL of AB reagent was added to each well of a 96 well dish containing cells or without cells to determine background. Mixtures were incubated at 37° C. for 6 hours and the absorbance measured at 570 nm using 600 nm as a reference wavelength. The value for the non-treated control was set to 100% and all other values are represented as a percentage of the control.
(§3) Because cell density in cultures processed for in situ DNA hybridization could not be measured by MTS or AB assays, cell density was approximated in cell cultures processed by quantifying hematoxylin staining intensity. Coverslips containing cells were prepared for in situ DNA hybridization and co-stained with hematoxylin. Subsequently, each coverslip was scanned and the hematoxylin intensities quantified using ImageJ. To determine the total cell number per coverslip, images were acquired at 10 random positions at 100× magnification. Cells were counted throughout each image and the average cell number per slide was generated by averaging counts from the 10 images for each experimental group. Exactly 900 images at 100× magnification cover the surface of an 18 mm×18 mm coverslip.

[3] = as above; format: cell-based, human; details: human; for cytotoxicity at 1 μM: read-out: reduction in viability (MTS)
Protocol: as §1, §2, §3

[4] = cohort 6, 600 μg/kg, still blinded

SMILES: CCCCCCCCCCCCCCCCOCCCOP(=O)(O)CO[C@H](CO)Cn1ccc(N)nc1=O [CMX001, Hexadecyloxypropyl-cidofovir]
- IC50 (Adenovirus; Ad14 (three isolates)): 41 nM and 36 nM
- IC50 (Adenovirus; unidentified adenovirus, Ad3): 48 nM
- IC50 (Adenovirus; unidentified adenovirus, Ad3 ATCC): 34 nM
- IC50 (Adenovirus; unidentified adenovirus, Ad4): 32 nM
- IC50 (Adenovirus; unidentified adenovirus, Ad4 ATCC): 20 nM
- IC50 (Adenovirus; unidentified adenovirus, Ad5 ATCC): 46 nM
- IC50 (Adenovirus; unidentified adenovirus, Ad7): 34 nM
- IC50 (Adenovirus; unidentified adenovirus, Ad7 ATCC): 65 nM
- IC50 (Adenovirus; unidentified adenovirus, Ad14 (three isolates)): 34 nM
- IC50 (Adenovirus; unidentified adenovirus, Ad14 ATCC): 22 nM
- IC50 (Adenovirus; unidentified adenovirus, Ad21): 44 nM
- availability and distribution [1]: orally available and widely distributed
- levels of viral transcripts (HCMV (AD169)): Significant reductions in levels of most viral transcripts
- response (BKV): > 1.5 log 10
- JCV Viral Load, Urine (JCV; Sub 1, D7): D7: 557 copies/mL
- JCV Viral Load, CSF (JCV; Sub 1, ~5 wks 2 mg/kg, D32 (Pre: 306)): D32: <300 copies/mL
- JCV Viral Load, CSF (JCV; Sub 3, 4 days (2 doses) 4 mg/kg, Post (Pre: 518)): Post: <500 copies/mL
- JCV Viral Load, Blood (JCV; Sub 4, EOT (Pre: 148)): EOT: 261 copies/mL
- JCV Viral Load, CSF (JCV; Sub 4, ~2.5 wks 4 mg/kg, EOT (Pre: 16,474)): EOT: 1070 copies/mL
- JCV Viral Load, Blood (JCV; Sub 5, ongoing ~3 wks 4 mg/kg, D7 (Pre: 1800)): D7 500 copies/mL
- Clinical Comment (JCV; individual patients Sub 1-5 during CMX001 treatment): During treatment, the patient regained swallowing; also recorded: became undetectable (<300 copies/mL) in the CSF
- viable vaccinia in lesions (vaccinia virus): Eliminated
- MDD (HSV-2, strain MS; CMX001 0.125 mg/kg): 9.0 ± 1.0
- Mortality Number (HSV-2, strain MS; CMX001 0.125 mg/kg): 13/15
- Mortality Percent (HSV-2, strain MS; CMX001 0.125 mg/kg): 87%
- MDD (HSV-2, strain MS; CMX001 0.42 mg/kg): 9.8 ± 2.6
- Mortality Number (HSV-2, strain MS; CMX001 0.42 mg/kg): 12/15
- Mortality Percent (HSV-2, strain MS; CMX001 0.42 mg/kg): 80%
- MDD (HSV-2, strain MS; CMX001 1.25 mg/kg): 9.4 ± 2.9
- Mortality Number (HSV-2, strain MS; CMX001 1.25 mg/kg): 9/15
- Mortality Percent (HSV-2, strain MS; CMX001 1.25 mg/kg): 60%
- AUC ([2]; 0.05 mg/kg, CMX001 0.050 mg/kg): 36.3 ng·h/mL
- Cmax ([2]; 0.05 mg/kg, CMX001 0.050 mg/kg): 5.63 ng/mL
- AUC ([2]; 0.1 mg/kg, CMX001 0.100 mg/kg): 133 ng·h/mL
- Cmax ([2]; 0.1 mg/kg, CMX001 0.100 mg/kg): 10.6 ng/mL
- AUC ([2]; 0.2 mg/kg, CMX001 0.200 mg/kg): 225 ng·h/mL
- Cmax ([2]; 0.2 mg/kg, CMX001 0.200 mg/kg): 24.5 ng/mL
- AUC ([2]; 0.4 mg/kg, CMX001 0.400 mg/kg): 526 ng·h/mL
- Cmax ([2]; 0.4 mg/kg, CMX001 0.400 mg/kg): 68.1 ng/mL
- AUC ([2]; 0.6 mg/kg, CMX001 0.600 mg/kg): 729 ng·h/mL
- Cmax ([2]; 0.6 mg/kg, CMX001 0.600 mg/kg): 115 ng/mL
- AUC ([2]; CMX001 0.025 mg/kg): 18.5 ng·h/mL
- Cmax ([2]; CMX001 0.025 mg/kg): 2.36 ng/mL
- adverse events [2, 4]: No serious adverse events (SAEs)
- clinical laboratory values [2, 4]: No drug associated clinically significant changes to clinical laboratory values
- reduction in total cell number (hematoxylin) (SVG cells; 0.01 μM): did not result in significant reduction
- reduction in total cell number (hematoxylin) (SVG cells; 0.03 μM): 14%
- reduction in total cell number (hematoxylin) (SVG cells; 0.07 μM): 39%
- reduction in total cell number (hematoxylin) (SVG cells; 0.1 μM): 46%
- cell viability (MTS) (SVG cells; 0.01 or 0.1 μM, non-infected or JCV-infected (established infection) SVG cells): did not alter cell viability
- concentrations at which cytotoxicity was observed (SVG cells; SVG cells): ≥ 1000 nM
- cytotoxicity at 1 μM ([3]; JCV-infected SVG cells (established infection), 1 μM, JCV-infected cells, established infection): 40%
- cytotoxicity at 4 days, 0.01 μM ([3]; SVG cells, 0.01 μM, 4 days, read-out: reduction in cell viability (alamar blue)): 6%
- cytotoxicity at 4 days, 0.1 μM ([3]; SVG cells, 0.1 μM, 4 days, read-out: reduction in cell viability (alamar blue)): 11%
- cytotoxicity at 4 days, 1 μM ([3]; SVG cells, 1 μM, 4 days, read-out: reduction in cell viability (alamar blue)): 32%
- cytotoxicity at 1 μM ([3]; non-infected SVG cells, 1 μM, non-infected cells): 15%
